Drawing on ChEMBL document CHEMBL5579811, “Synthesis, SARS-CoV-2 main protease inhibition, molecular docking and in silico ADME studies of furanochromene-quinoline hydrazone derivatives” (Bioorg Med Chem Lett, 2024), this text covers IC50 for seven compounds.

SMILES strings stand for the structures. pIC50: −log10 of the molar value. Some results are limits rather than exact numbers.

The test addresses Replicase polyprotein 1ab (Severe acute respiratory syndrome coronavirus 2, UniProt P0DTD1). The experiment in a line: Inhibition of SARS-COV-2 main protease using fluorogenic substrate (DABCYL)-Lys-Thr- Ser-Ala-Val-Leu-Gln-Ser-Gly-Phe-Arg-Lys-Met-Glu-(EDANS)-NH2 measured every 5 mins for 50 mins by plate reader assay.
Compound `CC1(C)C=Cc2c(ccc3cc(C(=O)N/N=C/c4ccc5cccc(O)c5n4)oc23)O1` showed a pIC50 of 3.74.

For `CC1(C)C=Cc2c(ccc3cc(C(=O)N/N=C/c4ccc5ncccc5c4)oc23)O1`, the pIC50 is 4.47. Next, `CC1(C)C=Cc2c(ccc3cc(C(=O)N/N=C/c4cccc5cccnc45)oc23)O1`: 4.79; `CC1(C)C=Cc2c(ccc3cc(C(=O)N/N=C/c4ccc5ccccc5n4)oc23)O1`: below 3.60; `CC1(C)C=Cc2c(ccc3cc(C(=O)N/N=C/c4cnc5ccccc5c4)oc23)O1`: 4.53. In the case of `CC1(C)C=Cc2c(ccc3cc(C(=O)N/N=C/c4cccc5ncccc45)oc23)O1`, the pIC50 is 4.37. Next, `CC1(C)C=Cc2c(ccc3cc(C(=O)N/N=C/c4ccnc5ccccc45)oc23)O1`: 3.89.
